Like-named read-outs stand apart in the source and are kept apart here.
Test system: kynurenine production in HeLa cells
Assay: Inhibition of kynurenine production in HeLa cells
Assay type: cell-based, human
Details: 48 h
Procedure: The effect of compounds described herein on the inhibition of kynurenine production in HeLa cells (derived from human cervical cancer) was determined. HeLa cells were seeded into a 96-well culture plate at a density of 5×10^3 per well in RPMI1640/phenol red free media (from GIBCO) with 2 mM L-glutamine and 10% fetal bovine serum (FBS, from GIBCO) and grown overnight in a 37° C. incubator with 5% CO2. Twenty-four hours later, human IFN-γ (from GIBCO) (final concentration 50 ng/mL) and test compound solutions (serially diluted to different wells) were added to each well with a final volume of 200 uL per well. Forty-eight hours after incubation with compounds, 140 uL supernatant was taken from each well and was transferred to a new 96-well plate. Ten microliters of 6.1 N trichloroacetic acid were added into each well, mixed and incubated at 50° C. for 30 minutes. The reaction mixture was then centrifuged for 10 minutes at 2500 rpm and 100 uL of the supernatant per well was transferred to another 96 well plate and mixed with 100 uL of 2% (w/v) p-dimethylaminobenzaldehyde in acetic acid. The yellow color derived from kynurenine was measured at 480 nm using a SPECTRAmax i3 reader. Each compound concentration was done in triplicates and compound IC50 value was calculated using nonlinear regression using Graphpad Prism 5.0.
The inhibitory activity of representative compounds described herein, compared with another IDO inhibitor, such as INCB-24360, Controls 1 and 2 are shown in Table 2.

[1] = HeLa cells, human IFN-γ 50 ng/mL, kynurenine read at 480 nm, read-out: IC50
[2] = Homo sapiens, HeLa, HeLa cells, human IFN-γ 50 ng/mL, kynurenine read at 480 nm, read-out: IC50

Structure (SMILES) | IC50 [2] [nM] | other results
CCC(C(=O)O)c1ccc(N(CC(C)C)CC(C)C)c(NC(=O)Nc2cc(C)no2)c1 (single isomer, unassigned) [Compound 59A] |  | IC50 [1]: 12.7 nM
CCC(C(=O)O)c1ccc(N(CC(C)C)CC(C)C)c(NC(=O)Nc2cc(C)no2)c1 (single isomer, unassigned) [Compound 59B] |  | IC50 [1]: 0.1 nM
CCC(C(=O)O)c1ccc(N(CC(C)C)CC(C)C)c(Nc2ccc(S(C)(=O)=O)cc2)c1 (single isomer, unassigned) [Compound 60A] |  | IC50 [1]: 33 nM
CCC(C(=O)O)c1ccc(N(CC(C)C)CC(C)C)c(Nc2ccc(S(C)(=O)=O)cc2)c1 (single isomer, unassigned) [Compound 60B] |  | IC50 [1]: 2.8 nM
CCC(C(=O)O)c1ccc(N(CC(C)C)C2CCCCC2)c(NC(=O)Nc2ccc(F)cc2F)c1 (single isomer, unassigned) [Compound 62A] |  | IC50 [1]: 1.4 nM
CCC(C(=O)O)c1ccc(N(CC(C)C)C2CCCCC2)c(NC(=O)Nc2ccc(F)cc2F)c1 (single isomer, unassigned) [Compound 62B] |  | IC50 [1]: 0.2 nM
CCC(C(=O)O)c1ccc(N(CC(C)C)C2CCCCC2)c(NC(=O)Nc2cncnc2)c1 (single isomer, unassigned) [Compound 64A] |  | IC50 [1]: 4.2 nM
CCC(C(=O)O)c1ccc(N(CC(C)C)C2CCCCC2)c(NC(=O)Nc2cncnc2)c1 (single isomer, unassigned) [Compound 64B] |  | IC50 [1]: 0.2 nM
CCC(C(=O)O)c1ccc(N(CC(C)C)C2CCOCC2)c(NC(=O)Nc2ccc(F)cc2F)c1 (single isomer, unassigned) [Compound 65A] |  | IC50 [1]: 0.8 nM
CCC(C(=O)O)c1ccc(N(CC(C)C)C2CCOCC2)c(NC(=O)Nc2ccc(F)cc2F)c1 (single isomer, unassigned) [Compound 65B] |  | IC50 [1]: 12 nM
CCC(C(=O)O)c1ccc(N(CC(C)C)C2CCOCC2)c(Nc2ccc3c(c2)OC(F)(F)O3)c1 (single isomer, unassigned) [Compound 71A] |  | IC50 [1]: 0.3 nM
CCC(C(=O)O)c1ccc(N(CC(C)C)C2CCOCC2)c(Nc2ccc3c(c2)OC(F)(F)O3)c1 (single isomer, unassigned) [Compound 71B] |  | IC50 [1]: 0.9 nM
CC(C)CN(CC(C)C)c1ccc(CC(=O)O)cc1NC(=O)Nc1ccc(F)cc1F [Compound 1, 2-[4-[bis(2-methylpropyl)amino]-3-[[(2,4-difluorophenyl)carbamoyl]amino]phenyl]acetic acid] | 130 | 
CC(C)CN(CC(C)C)c1ccc(C(C)C(=O)O)cc1NC(=O)Nc1ccc(F)cc1F (stereo not drawn) [Compound 2] | 9.1 | 
CC(C)CN(CC(C)C)c1ccc(C(C)(C)C(=O)O)cc1NC(=O)Nc1ccc(F)cc1F [Compound 4] | 14.9 | 
CC(C)CN(CC(C)C)c1c(F)cc(Cc2nnn[nH]2)cc1NC(=O)Nc1ccc(F)cc1F [Compound 6] | 8.5 | 
CC(C)CN(CC(C)C)c1ccc(C2(C(=O)O)CC2)cc1NC(=O)Nc1ccc(F)cc1F [Compound 7, 1-[4-[bis(2-methylpropyl)amino]-3-[[(2,4-difluorophenyl)carbamoyl]amino]phenyl]cyclopropane-1-carboxylic acid] | 6.3 | 
CC(C)CN(CC(C)C)c1ccc(C2(C(=O)O)CCOCC2)cc1NC(=O)Nc1ccc(F)cc1F [Compound 8, 4-[4-[bis(2-methylpropyl)amino]-3-[[(2,4-difluorophenyl)carbamoyl]amino]phenyl]oxane-4-carboxylic acid] | 47 | 
CC(C)CN(CC(C)C)c1ccc(C2(c3nnn[nH]3)CCCC2)cc1NC(=O)Nc1ccc(F)cc1F [Compound 10, 3-[2-[bis(2-methylpropyl)amino]-5-[1-(1H-1,2,3,4-tetrazol-5-yl)cyclopentyl]phenyl]-1-(2,4-difluorophenyl)urea] | 0.9 | 
CC(C)CN(c1ccc(C2(C(=O)O)CCCC2)cc1NC(=O)Nc1ccc(F)cc1F)C1CCCCC1 [Compound 11] | 0.9 | 

Structure (SMILES) | IC50 [2] [nM] | other results
CC(C)CN(c1ccc(C2(C(=O)O)CCCC2)cc1NC(=O)Nc1ccc(F)cc1F)C1CCC(F)(F)CC1 [Compound 12] | 0.5 | 
O=C(Nc1ccc(F)cc1F)Nc1cc(C2(C(=O)O)CCCC2)ccc1N(CCC(F)(F)F)Cc1ccc(OC(F)(F)F)cc1 [Compound 13] | 0.6 | 
Cc1ccc(NC(=O)Nc2cc(C3(C(=O)O)CCCC3)ccc2N(CCC(F)(F)F)Cc2ccc(OC(F)(F)F)cc2)cc1 [Compound 14] | 0.5 | 
Cc1cc(NC(=O)Nc2cc(C3(C(=O)O)CCCC3)ccc2N(CC(C)C)C2CCOCC2)on1 [Compound 15] | 1.4 | 
Cc1cc(NC(=O)Nc2cc(C3(C(=O)O)CCC3)ccc2N(CC(C)C)CC(C)C)on1 [Compound 17] | 0.8 | 
CC(C)CN(CC(C)C)c1ccc(C2(C(=O)O)CCC2)cc1NC(=O)Nc1cncnc1 [Compound 18] | 6.6 | 
CC(C)CN(CC(C)C)c1ccc(C2(c3nnn[nH]3)CCC2)cc1NC(=O)Nc1ccc(F)cc1F [Compound 19] | 1 | 
CCN(c1ccc(C2(C(=O)O)CCC2)cc1NC(=O)Nc1ccc(F)cc1F)C1CCCCC1 [Compound 20] | 0.5 | 
CC(C)CN(c1ccc(C2(C(=O)O)CCC2)cc1NC(=O)Nc1ccc(F)cc1F)C1CCCCC1 [Compound 21] | 0.6 | 
COCCN(c1ccc(C2(C(=O)O)CCC2)cc1NC(=O)Nc1ccc(F)cc1F)C1CCCCC1 [Compound 22] | 2.1 | 
CC(C)CN(CC(C)(C)O)c1ccc(C2(C(=O)O)CCC2)cc1NC(=O)Nc1ccc(F)cc1F [Compound 23] |  | IC50 [1]: 61.5 nM
CCN(c1ccc(C2(C(=O)O)CCC2)cc1NC(=O)Nc1ccc(F)cc1F)C1CCOCC1 [Compound 24] | 2.2 | 
Cc1cc(NC(=O)Nc2cc(C3(C(=O)O)CCC3)ccc2N(CC(C)C)C2CCOCC2)on1 [Compound 27] | 5.7 | 
CC(C)CN(c1ccc(C2(C(=O)O)CCC2)cc1NC(=O)Nc1ccc(F)cc1F)C1CCN(C)CC1 [Compound 28] |  | IC50 (Homo sapiens, HeLa): > 316 nM
CC(C)CN(CC(C)C)c1ccc(C2(C(=O)O)CC(F)(F)C2)cc1NC(=O)Nc1ccc(F)cc1F [Compound 29] | 4 | 
CC(C)CN(CC(C)C)c1ccc(C2(c3nnn[nH]3)CC(F)(F)C2)cc1NC(=O)Nc1ccc(F)cc1F [Compound 30] | 1 | 
CC(C)CN(CC(C)C)c1ccc(OCC(=O)O)cc1NC(=O)Nc1ccc(F)cc1F [Compound 31] | 11.8 | 
CC(C)CN(CC(C)C)c1ccc(OC(C)(C)C(=O)O)cc1NC(=O)Nc1ccc(F)cc1F [Compound 32] | 0.8 | 
CC(C)CN(CC(C)C)c1ccc(OC(C)(C)C(=O)O)cc1NC(=O)Nc1cncnc1 [Compound 33] | 48 | 
Cc1cc(NC(=O)Nc2cc(OC(C)(C)C(=O)O)ccc2N(CC(C)C)CC(C)C)on1 [Compound 34] | 7.7 | 

Structure (SMILES) | IC50 [2] [nM] | other results
CC(C)CN(c1ccc(OC(C)(C)C(=O)O)cc1NC(=O)Nc1ccc(F)cc1F)C1CCCCC1 [Compound 35] | 1.9 | 
CC(C)CN(CC(C)C)c1ccc(SCC(=O)O)cc1NC(=O)Nc1ccc(F)cc1F [Compound 36] | 2.8 | 
CC(C)CN(CC(C)C)c1ccc(SC(C)(C)C(=O)O)cc1NC(=O)Nc1ccc(F)cc1F [Compound 37] | 19.9 | 
CC(C)CN(c1ccc(SC(C)(C)C(=O)O)cc1NC(=O)Nc1ccc(F)cc1F)C1CCCCC1 [Compound 41] | 6.4 | 
CC(C)CN(c1ccc(SC(C)(C)C(=O)O)cc1NC(=O)Nc1ccc(F)cc1F)C1CCOCC1 [Compound 43] | 134 | 
COCCN(c1ccc(SC(C)(C)C(=O)O)cc1NC(=O)Nc1ccc(F)cc1F)C1CCCCC1 [Compound 45] | 78 | 
CC(C)CN(CC(C)C)c1ccc(C2(C(=O)O)CCCC2)cc1Nc1nc2ccccc2[nH]1 [Compound 47] | 5.6 | 
CC(C)CN(CC(C)C)c1ccc(C2(C(=O)O)CCCC2)cc1Nc1ncccn1 [Compound 49] | > 316 | 
CC(C)CN(c1ccc(C2(C(=O)O)CCC2)cc1NC(=O)C(C)C)C1CCOCC1 [Compound 50] | > 316 | 
CC(C)CN(CC(C)C)c1ccc(C2(C(=O)O)CCCC2)cc1Nc1ccc(Cl)cc1 [Compound 51] | 2.3 | 
CC(C)CN(c1ccc(C2(C(=O)O)CCC2)cc1Nc1ccc(Cl)cc1)C1CCCCC1 [Compound 52] | 0.3 | 
CCOc1ccc(Nc2cc(C3(C(=O)O)CCC3)ccc2N(CC(C)C)C2CCCCC2)cc1 [Compound 53] | 1 | 
CC(C)CN(c1ccc(C2(C(=O)O)CCC2)cc1Nc1cncnc1)C1CCCCC1 [Compound 54] | 0.6 | 
CCOc1ncc(Nc2cc(C3(C(=O)O)CCC3)ccc2N(CC(C)C)C2CCCCC2)cn1 [Compound 55] | 0.3 | 
CC(C)CN(c1ccc(C2(C(=O)O)CCC2)cc1Nc1ccc(C#N)cc1)C1CCCCC1 [Compound 56] | 0.2 | 
CC(C)CN(c1ccc(C2(C(=O)O)CCC2)cc1Nc1ccc(Cl)cc1)C1CCOCC1 [Compound 57] | 0.2 | 
CCC(C(=O)O)c1ccc(N(CC(C)C)CC(C)C)c(Nc2ccc(C#N)cc2)c1 (stereo not drawn) [Compound 61A] | 0.3 | 
CCC(C(=O)O)c1ccc(N(CC(C)C)C2CCCCC2)c(NC(=O)Nc2cc(C)no2)c1 (stereo not drawn) [Compound 63A] | 2.5 | 
CCC(C(=O)O)c1ccc(N(CC(C)C)C2CCOCC2)c(Nc2ccc(Cl)cc2)c1 (stereo not drawn) [Compound 68A] | 0.4 | 
CCC(C(=O)O)c1ccc(N(CC(C)C)C2CCOCC2)c(Nc2ccc(Cl)cc2)c1 (stereo not drawn) [Compound 68B] |  | IC50 [1]: 0.7 nM

From US11969425B2, “Inhibitor of indoleamine-2,3-dioxygenase (IDO)” (InventisBio LLC, priority 2016, dated 2024)
